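The compound was tested at five concentrations on cells cultured in 96-well plates, with a 48-hour exposure period. Here, GI50 denotes the concentration required for 50% inhibition of growth. At the TGI there is no net growth.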
Tests used:
Test in all cases: growth of human tumour cells (NCI), 48 h
UACC-257 melanoma = test system: UACC-257 melanoma
OVCAR-3 ovarian = test system: OVCAR-3 ovarian
KM12 colon = test system: KM12 colon
SF-268 CNS = test system: SF-268 CNS
A498 renal = test system: A498 renal
SF-295 CNS = test system: SF-295 CNS
CAKI-1 renal = test system: CAKI-1 renal
SF-539 CNS = test system: SF-539 CNS
CCRF-CEM leukemia = test system: CCRF-CEM leukemia
HCT-116 colon = test system: HCT-116 colon

CN(C)C(=O)C1CCC(=C2C(=O)OC(C)(C)OC2=O)N1C (centres undefined)
TGI (UACC-257 melanoma): > 100 µM
TGI (OVCAR-3 ovarian): > 100 µM
TGI (KM12 colon): > 100 µM
TGI (SF-268 CNS): > 100 µM
TGI (A498 renal): > 100 µM
TGI (SF-295 CNS): > 100 µM
TGI (CAKI-1 renal): > 100 µM
TGI (SF-539 CNS): > 100 µM
TGI (CCRF-CEM leukemia): > 100 µM
TGI (HCT-116 colon): > 100 µM

C=C(C)[C@@H]1CC[C@@]2(C)[C@H]1[C@H]1CCC3[C@@]4(C)CC[C@H](O)C(C)(C)[C@@H]4CC[C@@]3(C)[C@]1(C)C[C@@H]2O (some centres undefined)
TGI (UACC-257 melanoma): > 100 µM
TGI (OVCAR-3 ovarian): > 100 µM
TGI (KM12 colon): > 100 µM
TGI (SF-268 CNS): > 100 µM
TGI (A498 renal): > 100 µM
TGI (SF-295 CNS): 80.6 µM
TGI (CAKI-1 renal): > 100 µM
TGI (SF-539 CNS): > 100 µM
TGI (CCRF-CEM leukemia): > 100 µM
TGI (HCT-116 colon): > 100 µM

Nc1nc(Nc2cccc(F)c2)nc2ccccc12
GI50 (UACC-257 melanoma): 17.4 µM
TGI (UACC-257 melanoma): 34.1 µM
GI50 (OVCAR-3 ovarian): 21.1 µM
TGI (OVCAR-3 ovarian): 49.6 µM
GI50 (KM12 colon): 18.1 µM
TGI (KM12 colon): 42.4 µM
GI50 (SF-268 CNS): 28.5 µM
TGI (SF-268 CNS): > 100 µM
GI50 (A498 renal): 1.4 µM
TGI (A498 renal): 44.8 µM
GI50 (SF-295 CNS): 17.8 µM
TGI (SF-295 CNS): 42.7 µM
GI50 (CAKI-1 renal): 16 µM
TGI (CAKI-1 renal): 44.9 µM
GI50 (SF-539 CNS): 16.8 µM
TGI (SF-539 CNS): 34.2 µM
GI50 (CCRF-CEM leukemia): 24.6 µM
TGI (CCRF-CEM leukemia): > 100 µM
GI50 (HCT-116 colon): 18.1 µM
TGI (HCT-116 colon): 46.4 µM

Clc1ccc(CN2COc3c(cc(Cl)c4cccnc34)C2)cc1
TGI (UACC-257 melanoma): 9.13 µM
TGI (OVCAR-3 ovarian): 6.84 µM
TGI (KM12 colon): 6.32 µM
TGI (SF-268 CNS): 12.7 µM
TGI (A498 renal): 24.8 µM
TGI (SF-295 CNS): 7.1 µM
TGI (CAKI-1 renal): 12.6 µM
TGI (SF-539 CNS): 4.92 µM
TGI (CCRF-CEM leukemia): 4.94 µM
TGI (HCT-116 colon): 5.49 µM

CCc1c[nH]c2ncnc(N3CC[C@@](N)(CNC(=O)c4ccc(F)cc4F)C3)c12
GI50 (UACC-257 melanoma): 34.5 µM
TGI (UACC-257 melanoma): > 100 µM
GI50 (OVCAR-3 ovarian): 69.1 µM
TGI (OVCAR-3 ovarian): > 100 µM
GI50 (KM12 colon): 12.6 µM
TGI (KM12 colon): > 100 µM
GI50 (SF-268 CNS): 38 µM
TGI (SF-268 CNS): > 100 µM
GI50 (A498 renal): 16.4 µM
TGI (A498 renal): 53.4 µM
GI50 (SF-295 CNS): 26.2 µM
TGI (SF-295 CNS): > 100 µM
GI50 (CAKI-1 renal): 18.7 µM
TGI (CAKI-1 renal): > 89.8 µM
GI50 (SF-539 CNS): 20.4 µM
TGI (SF-539 CNS): > 100 µM
GI50 (CCRF-CEM leukemia): 28.3 µM
TGI (CCRF-CEM leukemia): > 96.4 µM
GI50 (HCT-116 colon): 25 µM
TGI (HCT-116 colon): > 100 µM

Cc1cccc(C)c1NC(=O)CCCC(=O)C1CCC/C1=N\NC(=O)C(=O)NN (centres undefined)
TGI (UACC-257 melanoma): > 100 µM
TGI (OVCAR-3 ovarian): > 100 µM
TGI (KM12 colon): > 100 µM
TGI (SF-268 CNS): > 100 µM
TGI (A498 renal): > 100 µM
TGI (SF-295 CNS): > 100 µM
TGI (CAKI-1 renal): > 100 µM
TGI (SF-539 CNS): > 100 µM
TGI (CCRF-CEM leukemia): > 100 µM
TGI (HCT-116 colon): > 100 µM

Cn1cc(-c2ccc3c(c2)CCN3C(=O)Cc2cccc(C(F)(F)F)c2)c2c(N)ncnc21
GI50 (UACC-257 melanoma): 5.37 µM
TGI (UACC-257 melanoma): 24.3 µM
GI50 (OVCAR-3 ovarian): 7.1 µM
TGI (OVCAR-3 ovarian): 21.9 µM
GI50 (KM12 colon): 0.401 µM
TGI (KM12 colon): 15.5 µM
GI50 (SF-268 CNS): 9 µM
TGI (SF-268 CNS): 26.5 µM
GI50 (A498 renal): 0.453 µM
TGI (A498 renal): 6.56 µM
GI50 (SF-295 CNS): 8.08 µM
TGI (SF-295 CNS): 25.3 µM
GI50 (CAKI-1 renal): 1.52 µM
TGI (CAKI-1 renal): 40.3 µM
GI50 (SF-539 CNS): 1.95 µM
TGI (SF-539 CNS): 11.8 µM
GI50 (CCRF-CEM leukemia): 3.94 µM
TGI (CCRF-CEM leukemia): > 100 µM
GI50 (HCT-116 colon): 4.64 µM
TGI (HCT-116 colon): 18.1 µM

CC(=O)OC1C2(CC3N4C(=O)C5(CO)SSC4(CC31O)C(=O)N5C)OC(C)C(C)(C)C2=O (centres undefined)
GI50 (UACC-257 melanoma): 0.224 µM
TGI (UACC-257 melanoma): 0.651 µM
GI50 (OVCAR-3 ovarian): 1.32 µM
TGI (OVCAR-3 ovarian): 3.01 µM
GI50 (KM12 colon): 1.16 µM
TGI (KM12 colon): 2.6 µM
GI50 (SF-268 CNS): 0.896 µM
TGI (SF-268 CNS): 2.95 µM
GI50 (A498 renal): 0.0352 µM
TGI (A498 renal): 0.0717 µM
GI50 (SF-295 CNS): 1.96 µM
TGI (SF-295 CNS): 3.94 µM
GI50 (CAKI-1 renal): 1.88 µM
TGI (CAKI-1 renal): 3.86 µM
GI50 (SF-539 CNS): 0.139 µM
TGI (SF-539 CNS): 0.215 µM
TGI (CCRF-CEM leukemia): 0.175 µM
GI50 (HCT-116 colon): 0.0696 µM
TGI (HCT-116 colon): 0.212 µM

Clc1ccc2nc(Oc3ccccc3)cnc2c1
GI50 (UACC-257 melanoma): > 100 µM
TGI (UACC-257 melanoma): > 100 µM
GI50 (OVCAR-3 ovarian): > 100 µM
TGI (OVCAR-3 ovarian): > 100 µM
GI50 (KM12 colon): > 100 µM
TGI (KM12 colon): > 100 µM
GI50 (SF-268 CNS): > 100 µM
TGI (SF-268 CNS): > 100 µM
GI50 (A498 renal): 8.84 µM
TGI (A498 renal): > 100 µM
GI50 (SF-295 CNS): > 100 µM
TGI (SF-295 CNS): > 100 µM
GI50 (CAKI-1 renal): > 100 µM
TGI (CAKI-1 renal): > 100 µM
GI50 (SF-539 CNS): > 100 µM
TGI (SF-539 CNS): > 100 µM
GI50 (CCRF-CEM leukemia): > 100 µM
TGI (CCRF-CEM leukemia): > 100 µM
GI50 (HCT-116 colon): > 100 µM
TGI (HCT-116 colon): > 100 µM

O=C(O)c1c[nH]cc1C(=O)O
TGI (UACC-257 melanoma): > 100 µM
TGI (OVCAR-3 ovarian): > 100 µM
TGI (KM12 colon): > 100 µM
TGI (SF-268 CNS): > 100 µM
TGI (A498 renal): > 100 µM
TGI (SF-295 CNS): > 100 µM
TGI (CAKI-1 renal): > 100 µM
TGI (SF-539 CNS): > 100 µM
TGI (CCRF-CEM leukemia): > 100 µM
TGI (HCT-116 colon): > 100 µM
